Measurements taken from patent US20250325689A1, “ANTIBODY-MULTIDRUG CONJUGATE” (UBE CORPORATION, priority 2022, published 2025).
Starred links: 1 amine or outer side, 2 acyl side, 3 side chain; linkers in the order of their positions; H or OH if unused. Non-standard residues stand in square brackets, D forms with d. Residues, ends and D or L forms follow the SMILES beside them. *: point of attachment. Dolaproine = CO[C@@H]([C@@H]1CCCN1)[C@@H](C)C(=O)O; X2 = C[C@@H](N[*:1])[C@@H](OC(=O)[*:2])c1ccccc1; Dil = CC[C@H](C)[C@H](NC)[C@@H](CC(=O)O)OC; X4 = OCC1OC(n2cc(CN*)nn2)C(O)C(O)C1O; NMeV = CN[C@H](C(=O)O)C(C)C

Molecular target: T1, porcine tubulin (Sus scrofa, UniProt P02550+P02554)
T1 construct: purchased Cytoskeleton, Inc. BKO11P
T1 sequence (P02550 whole entry): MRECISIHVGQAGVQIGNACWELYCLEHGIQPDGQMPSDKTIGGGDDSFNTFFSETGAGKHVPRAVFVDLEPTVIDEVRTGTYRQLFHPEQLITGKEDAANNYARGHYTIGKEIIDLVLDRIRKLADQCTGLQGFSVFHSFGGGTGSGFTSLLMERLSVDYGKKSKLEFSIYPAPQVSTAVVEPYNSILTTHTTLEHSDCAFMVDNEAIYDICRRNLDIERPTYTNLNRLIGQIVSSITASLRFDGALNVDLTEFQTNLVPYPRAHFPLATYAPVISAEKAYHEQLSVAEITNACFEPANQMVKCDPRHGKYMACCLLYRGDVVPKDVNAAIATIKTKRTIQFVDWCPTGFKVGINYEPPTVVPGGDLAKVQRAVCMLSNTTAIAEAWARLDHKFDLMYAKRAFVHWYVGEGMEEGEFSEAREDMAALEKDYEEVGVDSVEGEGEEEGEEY
T1 sequence (P02554 whole entry): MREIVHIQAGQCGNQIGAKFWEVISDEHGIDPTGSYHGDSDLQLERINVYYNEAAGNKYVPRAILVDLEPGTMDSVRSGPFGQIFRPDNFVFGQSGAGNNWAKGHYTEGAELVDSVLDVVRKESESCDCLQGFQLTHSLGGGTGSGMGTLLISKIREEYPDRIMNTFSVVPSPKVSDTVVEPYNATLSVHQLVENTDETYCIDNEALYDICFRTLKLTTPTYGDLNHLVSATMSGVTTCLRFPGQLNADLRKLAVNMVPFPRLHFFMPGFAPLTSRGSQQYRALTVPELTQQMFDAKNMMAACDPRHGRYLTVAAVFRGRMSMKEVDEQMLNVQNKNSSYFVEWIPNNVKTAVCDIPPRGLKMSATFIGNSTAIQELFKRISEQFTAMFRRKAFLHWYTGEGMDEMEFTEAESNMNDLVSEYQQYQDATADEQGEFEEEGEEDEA
Experiment: Tubulin polymerization inhibition test
Type: biochemical
Conditions: 37° C., fluorescence measured for 60 minutes
Description: For measuring the tubulin polymerization inhibitory action, Tubulin Polymerization Assay Kit (manufactured by Cytoskeleton, Inc., BKO11P) was used. A PIPES buffer containing porcine tubulin, GTP, MgCl2, EGTA, Glycerol, and a fluorescent reporter was prepared under ice-cooling as a reaction solution. The reaction solution was ice-cooled until it was used. A test compound solution was prepared by an aqueous solution containing 1.5% DMSO, and added to a 96 well plate (manufactured by Corning Inc., 3686) at 5 μL/well. The reaction solution was added thereto at 50 μL/well, the plate was placed in a microplate reader (FlexStation 3, manufactured by Molecular Device, LLC) in which the internal temperature was set to 37° C. in advance, and the fluorescence intensity measurement (excitation wavelength: 360 nm, detection wavelength: 420 nm) of each well was started. The fluorescence intensity was measured once every minute, and the measurement was continued for 60 minutes.
The tubulin polymerization inhibition rate (%) was calculated by the following equation. […]

For `CC[C@H](C)[C@@H]([C@@H](CC(=O)N1CCC[C@H]1[C@H](OC)[C@@H](C)C(=O)N[C@H](C)[C@@H](OC(=O)NCc1cn(C2OC(CO)C(O)C(O)C2O)nn1)c1ccccc1)OC)N(C)C(=O)[C@@H](NC(=O)[C@@H](NC)C(C)C)C(C)C` (stereo partly shown) [Example U-018] (H-[NMeV]V[Dil][Dolaproine][X2]-X4), the IC50 was at most 3 µM.
